Molecular target: P. falciparum apicoplast DNA polymerase (Pf-apPOL) (Plasmodium falciparum, UniProt Q8ILY1)
Experiment: Fluorescence-based high-throughput DNA polymerase assay (molecular beacon), primary screen and dose-response
Assay type: biochemical
Description: The HT assay employs a molecular beacon, a stem-loop DNA template with a Cy3 dye and the Black Hole Quencher on the 3′ and 5′ ends of the DNA, respectively. Pf-apPOL concentration is based on a calculated absorptivity of ε280 = 56750 M^−1 cm^−1. Reactions were carried out at 25 °C, using Corning 3575 […] (well-volume, 20 µL). Assays testing for compound inhibition composed of reaction buffer (pH 7.9 in 50 mM potassium acetate, 20 mM Tris-acetate and 10 mM magnesium acetate), Pf-apPOL (20 nM), DNA substrate (20 nM), dNTPs (6 µM), and compound (10 µM in DMSO). The DNA and nucleotide substrates (dNTPs) were at concentrations of 20 nM and 6 µM, respectively, in the assay. Pf-apPOL was incubated in the reaction buffer with dNTPs and the compound of interest (10 µM, in the assay) at 25 °C for 10 min. The DNA substrate was then added and the reaction was allowed to proceed for 90 min at 25 °C.
Each assay plate contained 16 negative controls (no Pf-apPOL, DMSO present) and 16 positive controls (Pf-apPOL present, no DMSO). The fluorescence of each well was determined using a BioTek Synergy Neo fluorescence plate reader using excitation and emission wavelengths of 555 and 570 nm, respectively.
In the above, Min is the average of fluorescence emission of the negative controls (substrate only), Max the average fluorescence emission from the positive controls (enzyme + substrate), and Test the emission from the assays in the presence of compounds (enzyme + compound + substrates). […] […] The IC50 of each compound was determined using Equation (2): (2) IC50= Vmax/(1+ (I/IC50)^n)
In the above, n measures cooperativity, with n > 1 indicating synergistic binding of more than a single molecule of the compound.
To identify apPOL inhibitors we utilised our previously developed high-throughput DNA polymerase assay. The HT assay is based on a molecular beacon DNA template that forms a stem-loop with a Cy3 dye and the Black Hole Quencher on the 3′ and 5′ ends of the DNA, respectively. DNA polymerase activity extends an annealed primer through the stem region, displacing the fluorophore from the quencher, thereby increasing its fluorescence (Figure 1(A)). The assay accurately recapitulates the kinetic behaviour of apPOL, as measured through more conventional low-throughput gel-based assays. The Z′ factor for the assay described here was 0.9 across all plates (data not shown).
Figure 1. High-throughput screening. (A) The fluorescent-based DNA polymerase assay used to screen the compound libraries. The DNA template strand is a hairpin loop with a primer annealed to the loop. The 3’ end of the primer is 11 bases away from the 6 bp duplex. Strand displacement activity of the DNA polymerase separates the Cy3 dye from the Black hole quencher leading to an increase in fluorescent signal. (B) The high-throughput assay workflow. The DNA polymerase is incubated with […] compound for 10 min prior to addition of the hairpin substrate. The reaction is quenched at 3 different time points and the fluorescent signal is measured and % inhibition is determined using the provided equation.

Chain of P. falciparum apicoplast DNA polymerase (Pf-apPOL) (Q8ILY1 entry or part of it): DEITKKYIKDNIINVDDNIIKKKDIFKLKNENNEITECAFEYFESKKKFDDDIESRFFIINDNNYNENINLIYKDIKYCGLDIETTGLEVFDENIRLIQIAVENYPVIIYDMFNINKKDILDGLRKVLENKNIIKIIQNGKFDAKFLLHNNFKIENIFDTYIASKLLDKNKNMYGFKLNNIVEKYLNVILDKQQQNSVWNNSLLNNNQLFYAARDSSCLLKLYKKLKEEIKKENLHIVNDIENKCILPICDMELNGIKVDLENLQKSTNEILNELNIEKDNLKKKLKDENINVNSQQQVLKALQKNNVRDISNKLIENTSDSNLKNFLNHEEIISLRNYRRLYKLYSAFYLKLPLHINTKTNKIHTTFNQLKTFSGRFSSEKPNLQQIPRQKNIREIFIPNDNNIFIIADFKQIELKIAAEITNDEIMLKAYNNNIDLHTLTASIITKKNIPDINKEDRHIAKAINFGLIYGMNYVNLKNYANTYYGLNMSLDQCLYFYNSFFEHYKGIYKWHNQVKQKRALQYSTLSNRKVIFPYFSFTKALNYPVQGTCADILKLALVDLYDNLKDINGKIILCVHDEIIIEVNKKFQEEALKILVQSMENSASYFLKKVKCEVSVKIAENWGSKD

## COc1ccc2c(c1)CCc1c-2nc2ccc(Br)cc2c1C(=O)O [KU0059417]
'DNA Pol'; screening value, unit not given; 90 min, 10 µM
  DNA Pol: 29
DRC-1; 10'; concentration 2.5
  % inhibition Apo pol 10': 25.2919%
DRC-1; 10'; concentration 5
  % inhibition Apo pol 10': 33.9692%
DRC-1; 10'; concentration 10
  % inhibition Apo pol 10': 45.4557%
DRC-1; 10'; concentration 20
  % inhibition Apo pol 10': 55.4931%
DRC-1; 10'; concentration 40
  % inhibition Apo pol 10': 69.0477%
DRC-1; 10'; concentration 80
  % inhibition Apo pol 10': 75.6745%
DRC-1; 90'; concentration 2.5
  % inhibition Apol 90': 11.1508%
DRC-1; 90'; concentration 5
  % inhibition Apol 90': 18.7068%
DRC-1; 90'; concentration 10
  % inhibition Apol 90': 30.3823%
DRC-1; 90'; concentration 20
  % inhibition Apol 90': 41.2946%
DRC-1; 90'; concentration 40
  % inhibition Apol 90': 54.5207%
DRC-1; 90'; concentration 80
  % inhibition Apol 90': 62.4129%
DRC-1; 180'; concentration 2.5
  % inhibition apPOL 180': 3.289%
DRC-1; 180'; concentration 5
  % inhibition apPOL 180': 10.0066%
DRC-1; 180'; concentration 10
  % inhibition apPOL 180': 20.2825%
DRC-1; 180'; concentration 20
  % inhibition apPOL 180': 30.8503%
DRC-1; 180'; concentration 40
  % inhibition apPOL 180': 43.5885%
DRC-1; 180'; concentration 80
  % inhibition apPOL 180': 50.0867%
DRC-2, 5', concentration 2.5
  % inhibition Apo pol 5': 21%
DRC-2, 5', concentration 5
  % inhibition Apo pol 5': 27%
DRC-2, 5', concentration 10
  % inhibition Apo pol 5': 34%
DRC-2, 5', concentration 20
  % inhibition Apo pol 5': 40%
DRC-2, 5', concentration 40
  % inhibition Apo pol 5': 53%
DRC-2, 5', concentration 80
  % inhibition Apo pol 5': 60%
DRC-2, 40', concentration 2.5
  % inhibition Apol 40': 17%
DRC-2, 40', concentration 5
  % inhibition Apol 40': 24%
DRC-2, 40', concentration 10
  % inhibition Apol 40': 33%
DRC-2, 40', concentration 20
  % inhibition Apol 40': 39%
DRC-2, 40', concentration 40
  % inhibition Apol 40': 54%
DRC-2, 40', concentration 80
  % inhibition Apol 40': 68%
DRC-2, 90', concentration 2.5
  % inhibition ApPOL 90': 15%
DRC-2, 90', concentration 5
  % inhibition ApPOL 90': 22%
DRC-2, 90', concentration 10
  % inhibition ApPOL 90': 31%
DRC-2, 90', concentration 20
  % inhibition ApPOL 90': 37%
DRC-2, 90', concentration 40
  % inhibition ApPOL 90': 52%
DRC-2, 90', concentration 80
  % inhibition ApPOL 90': 69%
DRC-2, 180', concentration 2.5
  % inhibition apPOL 180': 7%
DRC-2, 180', concentration 5
  % inhibition apPOL 180': 13%
DRC-2, 180', concentration 10
  % inhibition apPOL 180': 20%
DRC-2, 180', concentration 20
  % inhibition apPOL 180': 25%
DRC-2, 180', concentration 40
  % inhibition apPOL 180': 42%
DRC-2, 180', concentration 80
  % inhibition apPOL 180': 64%
Primary screen hit value, DNA Pol (186 hits); 90 min, 10 µM
  DNA Pol: 29

## COc1ccc(C(=O)Nc2cccc(-c3nc4ncccc4o3)c2)cc1[N+](=O)[O-] [KU0063313]
186 hits, value of the hit list (primary screen); unit not given; 90 min, 10 µM
  DNA Pol: 31
DRC-1; 10'; concentration 2.5
  % inhibition Apo pol 10': 4.335%
DRC-1; 10'; concentration 5
  % inhibition Apo pol 10': 2.852%
DRC-1; 10'; concentration 10
  % inhibition Apo pol 10': 35.1619%
DRC-1; 10'; concentration 20
  % inhibition Apo pol 10': 59.4699%
DRC-1; 10'; concentration 40
  % inhibition Apo pol 10': 4.461%
DRC-1; 10'; concentration 80
  % inhibition Apo pol 10': 70.0671%
DRC-1; 90'; concentration 2.5
  % inhibition Apol 90': 2.478%
DRC-1; 90'; concentration 5
  % inhibition Apol 90': 4.0361%
DRC-1; 90'; concentration 10
  % inhibition Apol 90': 26.4412%
DRC-1; 90'; concentration 20
  % inhibition Apol 90': 41.4228%
DRC-1; 90'; concentration 40
  % inhibition Apol 90': 2.829%
DRC-1; 90'; concentration 80
  % inhibition Apol 90': 43.7849%
DRC-1; 180'; concentration 2.5
  % inhibition apPOL 180': -1.663%
DRC-1; 180'; concentration 5
  % inhibition apPOL 180': 2.317%
DRC-1; 180'; concentration 10
  % inhibition apPOL 180': 20.5277%
DRC-1; 180'; concentration 20
  % inhibition apPOL 180': 37.6573%
DRC-1; 180'; concentration 40
  % inhibition apPOL 180': 6.705%
DRC-1; 180'; concentration 80
  % inhibition apPOL 180': 38.9716%
DRC-2, 5', concentration 2.5
  % inhibition Apo pol 5': 0.145%
DRC-2, 5', concentration 5
  % inhibition Apo pol 5': 8%
DRC-2, 5', concentration 10
  % inhibition Apo pol 5': 16%
DRC-2, 5', concentration 20
  % inhibition Apo pol 5': 4%
DRC-2, 5', concentration 40
  % inhibition Apo pol 5': 29%
DRC-2, 5', concentration 80
  % inhibition Apo pol 5': 15%
DRC-2, 40', concentration 2.5
  % inhibition Apol 40': 0.929%
DRC-2, 40', concentration 5
  % inhibition Apol 40': 10%
DRC-2, 40', concentration 10
  % inhibition Apol 40': 18%
DRC-2, 40', concentration 20
  % inhibition Apol 40': 1.88%
DRC-2, 40', concentration 40
  % inhibition Apol 40': 61%
DRC-2, 40', concentration 80
  % inhibition Apol 40': 45%
DRC-2, 90', concentration 2.5
  % inhibition ApPOL 90': 0.838%
DRC-2, 90', concentration 5
  % inhibition ApPOL 90': 10%
DRC-2, 90', concentration 10
  % inhibition ApPOL 90': 15%
DRC-2, 90', concentration 20
  % inhibition ApPOL 90': -0.691%
DRC-2, 90', concentration 40
  % inhibition ApPOL 90': 68%
DRC-2, 90', concentration 80
  % inhibition ApPOL 90': 58%
DRC-2, 180', concentration 2.5
  % inhibition apPOL 180': -5%
DRC-2, 180', concentration 5
  % inhibition apPOL 180': 2.55%
DRC-2, 180', concentration 10
  % inhibition apPOL 180': 8%
DRC-2, 180', concentration 20
  % inhibition apPOL 180': -8%
DRC-2, 180', concentration 40
  % inhibition apPOL 180': 73%
DRC-2, 180', concentration 80
  % inhibition apPOL 180': 62%
DRC-2; 5'; concentration 5
  % inhibition Apo pol 5': 8%
DRC-2; 5'; concentration 80
  % inhibition Apo pol 5': 15%
DRC-2; 40'; concentration 5
  % inhibition Apol 40': 10%
DRC-2; 90'; concentration 5
  % inhibition ApPOL 90': 10%
DRC-2; 90'; concentration 10
  % inhibition ApPOL 90': 15%
DRC-2; 180'; concentration 10
  % inhibition apPOL 180': 8%
Primary screen value, 'DNA Pol' only; 90 min, 10 µM
  DNA Pol: 31

From publication PMC9090415, “Discovery of small molecule inhibitors of Plasmodium falciparum apicoplast DNA polymerase” (Journal of Enzyme Inhibition and Medicinal Chemistry, 2022)
